In BindingDB's records for doi:10.1016/j.bmcl.2007.02.076 (Bristol-Myers Squibb Pharmaceutical Research Institute, 2007):
pIC50: −log10 of the molar value.

test: Inhibition of pTACE

| SMILES | pIC50 |
| --- | --- |
| Cc1cc(COc2ccc(S(=O)(=O)NCc3n[nH]c(=O)[nH]3)cc2)c2ccccc2n1 [4-((2-methylquinolin-4-yl)methoxy)-N-((5-oxo-4,5-dihydro-1H-1,2,4-triazol-3-yl)methyl)benzenesulfonamide] | 6.36 |
| Cc1cc(COc2ccc(C(=O)NCc3n[nH]c(=O)[nH]3)cc2)c2ccccc2n1 [4-((2-methylquinolin-4-yl)methoxy)-N-((5-oxo-4,5-dihydro-1H-1,2,4-triazol-3-yl)methyl)benzamide] | < 6.00 |
| Cc1cc(COc2ccc(C(=O)NCC3(C)NC(=O)NC3=O)cc2)c2ccccc2n1 (stereo not drawn) [N-((4-methyl-2,5-dioxoimidazolidin-4-yl)methyl)-4-((2-methylquinolin-4-yl)methoxy)benzamide] | 7.54 |
| Cc1cc(COc2ccc(C(=O)Nc3ccccc3-c3[nH]c(=O)[nH]c3O)cc2)c2ccccc2n1 [N-(2-(2,5-dioxoimidazolidin-4-yl)phenyl)-4-((2-methylquinolin-4-yl)methoxy)benzamide] | 7.85 |
| Cc1cc(COc2ccc(C(=O)Nc3ccccc3C(=O)c3c[nH]c(=O)[nH]3)cc2)c2ccccc2n1 [4-((2-methylquinolin-4-yl)methoxy)-N-(2-(2-oxo-2,3-dihydro-1H-imidazole-5-carbonyl)phenyl)benzamide] | 8.05 |
| Cc1cc(COc2ccc(S(=O)(=O)NCC3(C)NC(=O)NC3=O)cc2)c2ccccc2n1 (stereo not drawn) [N-((4-methyl-2,5-dioxoimidazolidin-4-yl)methyl)-4-((2-methylquinolin-4-yl)methoxy)benzenesulfonamide] | 7.43 |
| Cc1cc(COc2ccc(C(=O)Nc3ccccc3Cc3c[nH]c(=O)[nH]3)cc2)c2ccccc2n1 [4-((2-methylquinolin-4-yl)methoxy)-N-(2-((2-oxo-2,3-dihydro-1H-imidazol-5-yl)methyl)phenyl)benzamide] | 5.80 |
| Cc1cc(COc2ccc(C(=O)Nc3ccccc3Cc3n[nH]c(=O)[nH]3)cc2)c2ccccc2n1 [4-((2-methylquinolin-4-yl)methoxy)-N-(2-((5-oxo-4,5-dihydro-1H-1,2,4-triazol-3-yl)methyl)phenyl)benzamide] | 7.47 |
